Measurements: ChEMBL document CHEMBL1132824, “Highly specific inhibitory effect of three-component hybrid liposomes including sugar surfactants on the growth of glioma cells” (Bioorg Med Chem Lett, 2000)

How the values were obtained:
U-251 [1] = experiment: Compound alone was evaluated for inhibitory effect on growth of glioma (U251) cells; Ineffective; type: functional, cell-based; settings: Homo sapiens
U-251 [2] = experiment: Compound along with Tween 20 and SucCn was evaluated for inhibitory effect on growth of glioma (U251) cells; Effective; type: functional, cell-based; settings: Homo sapiens

Structure (SMILES) | Activity (U-251 [1]) | Activity (U-251 [2])
CCCCCCCCCCCCCC(=O)OCC(COP(=O)([O-])OCC[N+](C)(C)C)OC(=O)CCCCCCCCCCCCC (stereo unspecified) | Ineffective | Effective
CCCCCCCCCCCC(=O)OC[C@@H]1O[C@H](O[C@]2(CO)O[C@H](CO)[C@@H](O)[C@@H]2O)[C@@H](O)[C@@H](O)[C@@H]1O | Ineffective | Effective
CCCCCCCCCC(=O)OC[C@@H]1OC(O[C@]2(CO)OC(CO)C(O)[C@@H]2O)[C@@H](O)[C@H](O)[C@H]1O (single isomer, unassigned) | Ineffective | Effective
